Results taken from PubChem BioAssay (NCI).
Where “and” joins values, the source holds several entries; their conditions need not be identical. Equal entries are not always repeated.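 These data come from cells grown in 96-well plates and exposed to compound for 48 hours at five concentrations. GI50 = concentration required for 50% inhibition of growth. At the TGI there is no net growth.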

How the values were obtained:
Assay in all cases: NCI-60 cell line screen, 48 h
786-0 renal = system: 786-0 renal
SK-OV-3 ovarian = system: SK-OV-3 ovarian
CAKI-1 renal = system: CAKI-1 renal
LOX IMVI melanoma = system: LOX IMVI melanoma
ACHN renal = system: ACHN renal
HCT-15 colon = system: HCT-15 colon
COLO 205 colon = system: COLO 205 colon
SK-MEL-28 melanoma = system: SK-MEL-28 melanoma
SK-MEL-2 melanoma = system: SK-MEL-2 melanoma
OVCAR-8 ovarian = system: OVCAR-8 ovarian
SNB-19 CNS = system: SNB-19 CNS
SK-MEL-5 melanoma = system: SK-MEL-5 melanoma
M14 melanoma = system: M14 melanoma
TK-10 renal = system: TK-10 renal
SNB-75 CNS = system: SNB-75 CNS
NCI-H226 lung = system: NCI-H226 lung
NCI-H522 lung = system: NCI-H522 lung
HS 578T breast = system: HS 578T breast
MCF7 breast = system: MCF7 breast
U251 CNS = system: U251 CNS
SN12C renal = system: SN12C renal
EKVX NSCLC = system: EKVX NSCLC
HOP-62 NSCLC = system: HOP-62 NSCLC
SF-268 CNS = system: SF-268 CNS
UACC-62 melanoma = system: UACC-62 melanoma
A549 NSCLC = system: A549 NSCLC
NCI-H23 lung = system: NCI-H23 lung
IGROV1 ovarian = system: IGROV1 ovarian
OVCAR-5 ovarian = system: OVCAR-5 ovarian
BT-549 breast = system: BT-549 breast
DU-145 prostate = system: DU-145 prostate
SF-295 CNS = system: SF-295 CNS
NCI-H460 lung = system: NCI-H460 lung
K-562 leukemia = system: K-562 leukemia
OVCAR-4 ovarian = system: OVCAR-4 ovarian
CCRF-CEM leukemia = system: CCRF-CEM leukemia
MDA-MB-231 breast = system: MDA-MB-231 breast
T-47D breast = system: T-47D breast
UO-31 renal = system: UO-31 renal
MDA-MB-435 = system: MDA-MB-435
NCI/ADR-RES ovarian = system: NCI/ADR-RES ovarian
PC-3 prostate = system: PC-3 prostate
KM12 colon = system: KM12 colon
UACC-257 melanoma = system: UACC-257 melanoma
HT29 colon = system: HT29 colon
SW-620 colon = system: SW-620 colon
HCT-116 colon = system: HCT-116 colon
RPMI-8226 leukemia = system: RPMI-8226 leukemia
HL-60(TB) leukemia = system: HL-60(TB) leukemia

Compound `O=C1C=Cc2c1ccc1ccccc21` has a GI50 (786-0 renal) of 21.3 µM, a TGI (786-0 renal) of 65.2 µM and a GI50 (SK-OV-3 ovarian) of 30.2 µM. For the same compound, the TGI (SK-OV-3 ovarian) was greater than 100 µM, the GI50 (CAKI-1 renal) was 11.1 µM and the TGI (CAKI-1 renal) was 33 µM. It also gave a GI50 (LOX IMVI melanoma) of 22 µM, a TGI (LOX IMVI melanoma) of 61.8 µM and a GI50 (ACHN renal) of 17.1 µM. The TGI (ACHN renal) was 58.7 µM, the GI50 (HCT-15 colon) was 24.1 µM and the TGI (HCT-15 colon) was greater than 100 µM. The GI50 (COLO 205 colon) was 30.9 µM, the TGI (COLO 205 colon) was greater than 100 µM and the GI50 (SK-MEL-28 melanoma) was 80.4 µM. For the same compound, the TGI (SK-MEL-28 melanoma) was greater than 100 µM, the GI50 (SK-MEL-2 melanoma) was 72.9 µM and the TGI (SK-MEL-2 melanoma) was greater than 100 µM. The GI50 (OVCAR-8 ovarian) was 25.3 µM, the TGI (OVCAR-8 ovarian) was 73.6 µM and the GI50 (SNB-19 CNS) was 33 µM. It also gave a TGI (SNB-19 CNS) greater than 100 µM, a GI50 (SK-MEL-5 melanoma) of 21.1 µM and a TGI (SK-MEL-5 melanoma) of 71 µM. For the same compound, the GI50 (M14 melanoma) was 18.9 µM, the TGI (M14 melanoma) was 60.3 µM and the GI50 (TK-10 renal) was 15.9 µM. The TGI (TK-10 renal) was 54.9 µM, the GI50 (SNB-75 CNS) was 35.4 µM and the TGI (SNB-75 CNS) was greater than 100 µM. It also gave a GI50 (NCI-H226 lung) of 16.6 µM, a TGI (NCI-H226 lung) greater than 100 µM and a GI50 (NCI-H522 lung) of 27.6 µM. It also gave a TGI (NCI-H522 lung) greater than 100 µM, a GI50 (HS 578T breast) of 18.4 µM and a TGI (HS 578T breast) of 54.6 µM. It also gave a GI50 (MCF7 breast) of 18.6 µM, a TGI (MCF7 breast) greater than 100 µM and a GI50 (U251 CNS) of 24.5 µM. It also gave a TGI (U251 CNS) greater than 100 µM, a GI50 (SN12C renal) of 6.55 µM and a TGI (SN12C renal) of 35.7 µM. For the same compound, the GI50 (EKVX NSCLC) was 12.6 µM, the TGI (EKVX NSCLC) was 61.3 µM and the GI50 (HOP-62 NSCLC) was 14.3 µM. For the same compound, the TGI (HOP-62 NSCLC) was 50 µM, the GI50 (SF-268 CNS) was 28.3 µM and the TGI (SF-268 CNS) was greater than 100 µM. For the same compound, the GI50 (UACC-62 melanoma) was 9.66 µM, the TGI (UACC-62 melanoma) was 70.9 µM and the GI50 (A549 NSCLC) was 18.3 µM. It also gave a TGI (A549 NSCLC) of 65.8 µM, a GI50 (NCI-H23 lung) of 27.4 µM and a TGI (NCI-H23 lung) of 85.2 µM. For the same compound, the GI50 (IGROV1 ovarian) was 25.5 µM, the TGI (IGROV1 ovarian) was greater than 100 µM and the GI50 (OVCAR-5 ovarian) was 16.1 µM. It also gave a TGI (OVCAR-5 ovarian) of 67.4 µM, a GI50 (BT-549 breast) of 31.4 µM and a TGI (BT-549 breast) of 89.9 µM. It also gave a GI50 (DU-145 prostate) of 48.8 µM, a TGI (DU-145 prostate) greater than 100 µM and a GI50 (SF-295 CNS) of 20.8 µM. It also gave a TGI (SF-295 CNS) of 63.6 µM, a GI50 (NCI-H460 lung) of 35.7 µM and a TGI (NCI-H460 lung) greater than 100 µM. For the same compound, the GI50 (K-562 leukemia) was 28.7 µM, the TGI (K-562 leukemia) was greater than 100 µM and the GI50 (OVCAR-4 ovarian) was 75.2 µM. The TGI (OVCAR-4 ovarian) was greater than 100 µM, the GI50 (CCRF-CEM leukemia) was 14.8 µM and the TGI (CCRF-CEM leukemia) was 43.9 µM. The GI50 (MDA-MB-231 breast) was 15 µM, the TGI (MDA-MB-231 breast) was 53.6 µM and the GI50 (T-47D breast) was 37.9 µM. For the same compound, the TGI (T-47D breast) was greater than 100 µM, the GI50 (UO-31 renal) was 26.7 µM and the TGI (UO-31 renal) was greater than 100 µM. It also gave a GI50 (MDA-MB-435) of 14.9 µM, a TGI (MDA-MB-435) of 42.9 µM and a GI50 (NCI/ADR-RES ovarian) of 31.9 µM. The TGI (NCI/ADR-RES ovarian) was greater than 100 µM, the GI50 (PC-3 prostate) was 13 µM and the TGI (PC-3 prostate) was 85.2 µM. For the same compound, the GI50 (KM12 colon) was 24.5 µM, the TGI (KM12 colon) was 77.5 µM and the GI50 (UACC-257 melanoma) was 50.2 µM. It also gave a TGI (UACC-257 melanoma) greater than 100 µM, a GI50 (HT29 colon) of 58.8 µM and a TGI (HT29 colon) greater than 100 µM. The GI50 (SW-620 colon) was 44.3 µM, the TGI (SW-620 colon) was greater than 100 µM and the GI50 (HCT-116 colon) was 27 µM. It also gave a TGI (HCT-116 colon) greater than 100 µM, a GI50 (RPMI-8226 leukemia) of 4.2 µM and a TGI (RPMI-8226 leukemia) of 21.9 µM.
In the case of `Oc1c(Cl)c(Cl)c(Cl)c(Cl)c1Cl` (tested in a mixture with another compound), the TGI (HL-60(TB) leukemia) is reported as 39 µM and 10 µM, the TGI (NCI-H226 lung) is reported as 41.7 µM and the TGI (CCRF-CEM leukemia) is reported as 62.3 µM.
